From patent US20090062251A1, “Novel Compounds 002” (ASTRAZENECA AB, priority 2007, published 2009) come the findings set out here.

SMILES strings stand for the structures.

In the assay the target is T1, Human CB1 receptor (hCB1) (Homo sapiens, UniProt P21554).
T1 construct: purchased Receptor Biology
As to the kind of experiment: hCB1 GTPγS binding. The format is biochemical. As to conditions: for EC50: hCB1 membranes, GTPγ35S, 10-point dose-response; for Emax / hCB1 EMax: maximal stimulated binding determined with 10 μM Win 55,212-2. As for the experimental part:
hCB1 and hCB2 GTPγS Binding
Human CB1 receptor from Receptor Biology (hCB1) or human CB2 receptor membranes (BioSignal) are thawed at 37° C., passed 3 times through a 25-gauge blunt-end needle and diluted in the GTPγS binding buffer (50 mM Hepes, 20 mM NaOH, 100 mM NaCl, 1 mM EDTA, 5 mM MgCl2, pH 7.4, 0.1% BSA). […] The basal and maximal stimulated binding is determined in absence and presence of 1 μM (hCB2) or 10 μM (hCB1) Win 55, 212-2 respectively. The membranes are pre-incubated for 5 minutes with 56.25 μM (hCB2) or 112.5 μM (hCB1) GDP prior to distribution in plates (15 μM (hCB2) or 30 μM (hCB1) GDP final). The plates are vortexed and incubated for 60 minutes at room temperature, filtered on Unifilters GF/B (presoaked in water) with the Tomtec or Packard harvester using 3 ml of wash buffer (50 mM Tris, 5 mM MgCl2, 50 mM NaCl, pH 7.0). The filters are dried for 1 hour at 55° C. The radioactivity (cpm) is counted in a TopCount (Packard) after adding 65 μl/well of MS-20 scintillation liquid. Antagonist reversal studies are done in the same way except that (a) an agonist dose-response curve is done in the presence of a constant concentration of antagonist, or (b) an antagonist dose-response curve is done in the presence of a constant concentration of agonist.
For orientation: GTPγS is a poorly hydrolysed GTP analogue; its binding reports G protein activation.

T1 sequence (P21554 whole entry): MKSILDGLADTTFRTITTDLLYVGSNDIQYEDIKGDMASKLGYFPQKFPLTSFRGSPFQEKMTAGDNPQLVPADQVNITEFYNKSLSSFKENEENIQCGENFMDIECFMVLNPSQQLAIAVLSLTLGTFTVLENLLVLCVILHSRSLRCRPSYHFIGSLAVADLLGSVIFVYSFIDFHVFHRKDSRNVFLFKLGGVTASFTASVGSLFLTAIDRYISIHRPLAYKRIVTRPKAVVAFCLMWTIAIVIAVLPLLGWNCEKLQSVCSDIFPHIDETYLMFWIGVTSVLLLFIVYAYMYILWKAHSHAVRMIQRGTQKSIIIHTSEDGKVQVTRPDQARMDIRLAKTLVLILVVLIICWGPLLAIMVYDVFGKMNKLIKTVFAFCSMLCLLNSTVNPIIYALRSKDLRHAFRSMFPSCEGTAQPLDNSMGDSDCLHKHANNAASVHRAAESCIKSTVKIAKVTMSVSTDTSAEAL

Broadly, the EC50 is the concentration giving half of the maximal effect. The low end stands for higher potency in that assay, the high end for lower potency in that assay. In general, Emax refers to the greatest response seen or fitted, relative to the assay's reference. For the compound `CCNC(=O)CN(CC)C(=O)c1ccc2c(c1)c1c(n2CC(=O)N(CC)CC)CCC(C2CCOCC2)C1` (stereo not shown) [9-(diethylcarbamoylmethyl)-N-ethyl-N-(ethylcarbamoylmethyl)-6-(oxan-4-yl)-5,6,7,8-tetrahydrocarbazole-3-carboxamide], the EC50 was over 10000 nM and the Emax was over 87%. On to `CCNC(=O)CN(CC)C(=O)c1ccc2c(c1)c1c(n2CC(=O)NC)CCC(C2CCOCC2)C1` (stereo not shown) [N-ethyl-N-(ethylcarbamoylmethyl)-9-(methylcarbamoylmethyl)-6-(oxan-4-yl)-5,6,7,8-tetrahydrocarbazole-3-carboxamide], for which the EC50 was over 30000 nM and the Emax is over 9%.

`CNC(=O)CCCN(C)C(=O)c1ccc2c(c1)c1c(n2C)CCC(C2CCOCC2)C1` (stereo not shown) [N,9-dimethyl-N-[3-(methylcarbamoyl)propyl]-6-(oxan-4-yl)-5,6,7,8-tetrahydrocarbazole-3-carboxamide]: the Emax turned out to be 102%. Regarding `CONC(=O)CCCN(C)C(=O)c1ccc2c(c1)c1c(n2C)CC[C@@H](C2CCOCC2)C1` [(R)—N-(4-(Methoxyamino)-4-oxobutyl)-N,9-dimethyl-3-(tetrahydro-2H-pyran-4-yl)-2,3,4,9-tetrahydro-1H-carbazole-6-carboxamide], a half-maximal effect (EC50) was put at 291 nM and the Emax is 104%. In the same order, the values of `CN(CCCC(=O)NCC#N)C(=O)c1ccc2c(c1)c1c(n2C)CC[C@@H](C2CCOCC2)C1` [(R)—N-(4-(Cyanomethylamino)-4-oxobutyl)-N,9-dimethyl-3-(tetrahydro-2H-pyran-4-yl)-2,3,4,9-tetrahydro-1H-carbazole-6-carboxamide] are 71 nM and 110%. Turning to `Cn1c2c(c3cc(C(=O)N4CCC[C@H](C(=O)NC5CC5)C4)ccc31)CC(C1CCOCC1)CC2` (stereo partly drawn) [(3S)—N-cyclopropyl-1-[9-methyl-6-(oxan-4-yl)5,6,7,8-tetrahydrocarbazole-3-carbonyl]piperidine-3-carboxamide], the Emax was 118%. Consider `CCNC(=O)CN(CC)C(=O)c1ccc2c(c1)c1c(n2CCO)CCC(C2CCOCC2)C1` (stereo not shown) [N-ethyl-N-(ethylcarbamoylmethyl)-9-(2-hydroxyethyl)-6-(oxan-4-yl)-5,6,7,8-tetrahydrocarbazole-3-carboxamide], for which the EC50 is over 3330 nM and the Emax is over 83%.

As to `CN(CCCC(=O)Nn1cccc1)C(=O)c1ccc2c(c1)c1c(n2C)CC[C@@H](C2CCOCC2)C1` [(R)—N-(4-(1H-Pyrrol-1-ylamino)-4-oxobutyl)-N,9-dimethyl-3-(tetrahydro-2H-pyran-4-yl)-2,3,4,9-tetrahydro-1H-carbazole-6-carboxamide], the response was half-maximal at 1050 nM (EC50) and the Emax came to 89%. In the same order, the values of `CCN(CC(=O)NC1CCOCC1)C(=O)c1ccc2c(c1)c1c(n2C)CCC(C2CCOCC2)C1` (stereo not shown) [N-ethyl-9-methyl-6-(oxan-4-yl)-N-(oxan-4-ylcarbamoylmethyl)-5,6,7,8-tetrahydrocarbazole-3-carboxamide] are over 1110 nM and over 88%. The compound `CCN(CC(=O)NCCF)C(=O)c1ccc2c(c1)c1c(n2C)CCC(C2CCOCC2)C1` (stereo not shown) [N-ethyl-N-(2-fluoroethylcarbamoylmethyl)-9-methyl-6-(oxan-4-yl)-5,6,7,8-tetrahydrocarbazole-3-carboxamide] showed an Emax of 108%.

`Cn1c2c(c3cc(C(=O)N4CC[C@H](C(=O)NC5CC5)C4)ccc31)CC(C1CCOCC1)CC2` (stereo partly drawn) [(3S)—N-cyclopropyl-1-[9-methyl-6-(oxan-4-yl)5,6,7,8-tetrahydrocarbazole-3-carbonyl]pyrrolidine-3-carboxamide] registered an Emax of 134%. On the same count and under the same terms, next, `CCN(CC(=O)NC1CC1)C(=O)c1ccc2c(c1)c1c(n2C)CCC(C2CCOCC2)C1` (stereo not shown) [N-(cyclopropylcarbamoylmethyl)-N-ethyl-9-methyl-6-(oxan-4-yl)-5,6,7,8-tetrahydrocarbazole-3-carboxamide]: 124%. Turning to `CC(C)NC(=O)CC[C@@H](CO)N(C)C(=O)c1ccc2c(c1)c1c(n2C)CC[C@@H](C2CCOCC2)C1` [(R)—N-((S)-1-Hydroxy-5-(isopropylamino)-5-oxopentan-2-yl)-N,9-dimethyl-3-(tetrahydro-2H-pyran-4-yl)-2,3,4,9-tetrahydro-1H-carbazole-6-carboxamide], it took 133 nM to reach a half-maximal effect (EC50) and the Emax was 129%.

Regarding `CCS(=O)(=O)n1c2c(c3cc(C(=O)N4CC[C@@H](O)C4)ccc31)CC(C1CCOCC1)CC2` (stereo partly drawn) [[9-ethylsulfonyl-6-(oxan-4-yl)-5,6,7,8-tetrahydrocarbazol-3-yl]-[(3R)-3-hydroxypyrrolidin-1-yl]methanone], the EC50 is over 3160 nM and the Emax was over 89%. In the same order, the values of `CCS(=O)(=O)n1c2c(c3cc(C(=O)N4CCC[C@@H](O)C4)ccc31)CC(C1CCOCC1)CC2` (stereo partly drawn) [[9-ethylsulfonyl-6-(oxan-4-yl)-5,6,7,8-tetrahydrocarbazol-3-yl]-[(3R)-3-hydroxy-1-piperidyl]methanone] are 1760 nM and 104%. `CN(CC(=O)NC1CC1)C(=O)c1ccc2c(c1)c1c(n2C)CCC(C2CCOCC2)C1` (stereo not shown) [N-(cyclopropylcarbamoylmethyl)-N,9-dimethyl-6-(oxan-4-yl)-5,6,7,8-tetrahydrocarbazole-3-carboxamide]: the Emax is 121% and the “hCB1 EMax” value is given as 121%. `CNC(=O)CC[C@@H](CO)N(C)C(=O)c1ccc2c(c1)c1c(n2C)CC[C@@H](C2CCOCC2)C1` [(R)—N-((S)-1-Hydroxy-5-(methylamino)-5-oxopentan-2-yl)-N,9-dimethyl-3-(tetrahydro-2H-pyran-4-yl)-2,3,4,9-tetrahydro-1H-carbazole-6-carboxamide]: the EC50 is 101 nM and the Emax turned out to be 124%. The corresponding values for `CCS(=O)(=O)n1c2c(c3cc(C(=O)N4CC[C@H](O)C4)ccc31)CC(C1CCOCC1)CC2` (stereo partly drawn) [[9-ethylsulfonyl-6-(oxan-4-yl)-5,6,7,8-tetrahydrocarbazol-3-yl]-[(3S)-3-hydroxypyrrolidin-1-yl]methanone] are 4560 nM and 105%. In the case of `CN(C)NC(=O)CCCN(C)C(=O)c1ccc2c(c1)c1c(n2C)CC[C@@H](C2CCOCC2)C1` [(R)—N-(4-(2,2-Dimethylhydrazinyl)-4-oxobutyl)-N,9-dimethyl-3-(tetrahydro-2H-pyran-4-yl)-2,3,4,9-tetrahydro-1H-carbazole-6-carboxamide], the half-maximal effective concentration (EC50) turned out to be 917 nM and the Emax was 96%. In the same order, the values of `CCN(CCCC(=O)NCCO)C(=O)c1ccc2c(c1)c1c(n2C)CC[C@@H](C2CCOCC2)C1` [(R)—N-Ethyl-N-(4-(2-hydroxyethylamino)-4-oxobutyl)-9-methyl-3-(tetrahydro-2H-pyran-4-yl)-2,3,4,9-tetrahydro-1H-carbazole-6-carboxamide] are 31 nM and 113%.

With `COCCNC(=O)CCCN(C)C(=O)c1ccc2c(c1)c1c(n2C)CC[C@@H](C2CCOCC2)C1` [(R)—N-(4-(2-Methoxyethylamino)-4-oxobutyl)-N,9-dimethyl-3-(tetrahydro-2H-pyran-4-yl)-2,3,4,9-tetrahydro-1H-carbazole-6-carboxamide], it took 1210 nM to reach a half-maximal effect (EC50) and the Emax amounted to 93%. In turn, `CN(C(=O)c1ccc2c(c1)c1c(n2C)CC[C@@H](C2CCOCC2)C1)[C@H](CO)CCC(=O)NC1COC1` [(R)—N-((S)-1-Hydroxy-5-(oxetan-3-ylamino)-5-oxopentan-2-yl)-N,9-dimethyl-3-(tetrahydro-2H-pyran-4-yl)-2,3,4,9-tetrahydro-1H-carbazole-6-carboxamide] returned a concentration giving a half-maximal response (EC50) of 201 nM and an Emax of 119%. With `CCN(CC(=O)NCCO)C(=O)c1ccc2c(c1)c1c(n2S(=O)(=O)CC)CCC(C2CCOCC2)C1` (stereo not shown) [N-ethyl-9-ethylsulfonyl-N-(2-hydroxyethylcarbamoylmethyl)-6-(oxan-4-yl)-5,6,7,8-tetrahydrocarbazole-3-carboxamide], the Emax was found to be 111% and the “hCB1 EMax” value was found to be 111%.

For `CN(CCCC(=O)NCCF)C(=O)c1ccc2c(c1)c1c(n2C)CCC(C2CCOCC2)C1` (stereo not shown) [N-[3-(2-fluoroethylcarbamoyl)propyl]-N,9-dimethyl-6-(oxan-4-yl)-5,6,7,8-tetrahydrocarbazole-3-carboxamide], the maximal response (Emax) came to 121%. Turning to `CCNC(=O)CN(CC)C(=O)c1ccc2c(c1)c1c(n2CC(C)(C)O)CCC(C2CCOCC2)C1` (stereo not shown) [N-ethyl-N-(ethylcarbamoylmethyl)-9-(2-hydroxy-2-methyl-propyl)-6-(oxan-4-yl)-5,6,7,8-tetrahydrocarbazole-3-carboxamide], the EC50 is over 30000 nM and the Emax is over 34%. In the same order, the values of `CN(C(=O)c1ccc2c(c1)c1c(n2C)CC[C@@H](C2CCOCC2)C1)[C@H](CO)CCC(=O)NCC(F)F` [(R)—N-((S)-5-(2,2-Difluoroethylamino)-1-hydroxy-5-oxopentan-2-yl)-N,9-dimethyl-3-(tetrahydro-2H-pyran-4-yl)-2,3,4,9-tetrahydro-1H-carbazole-6-carboxamide] are 107 nM and 120%.
